Test: Solubility of monomers and polymers in water and organic solvents
Format: physicochemical
Source text: The DM trgel monomers as prepared by the methods exemplified in Examples 1-5 above were converted to polymers by the anionic polymerization reaction as illustrated in Reaction Scheme A and the physical properties of homopolymers of differing monomers are presented in Table 1. With reference to Table 1 it should be noted that all of the resulting polymers have very low poly dispersity (Mw/Mn). […] All trgel monomers can be copolymerized randomly or in blocks. Copolymerization of water-soluble and water insoluble monomers results in polymers with controlled solubility in water, including gel forming polymers. Water-soluble polymers are particularly useful in biological applications such as surface protection from non-specific adsorption. The data also illustrates that the glass transition temperature (Tg) of polymers with alkyl substituents decreases as the alkyl chain length increases. […] The DM trgel polymers wherein R=2-methoxyethyl or R=2-(2-methoxyethoxyethyl) show lower critical solution temperature (LCST) behavior.

Row | Structure (SMILES) | Solubility in hexane (hexane) | Solubility in water
1 | CCCCCCCCCCO[C@H]1[C@@H]2O[C@@H]2[C@@H]2OC[C@H]1O2 [DDM, 1,6:2,3-dianhydro-4-O-decyl-β-D-mannopyranose] | soluble | 
2 | COCCOC1C2COC(O2)C2OC12 [MEDM, 1,6:2,3-dianhydro-4-O-(2-methoxyethyl)-β-D-mannopyranose] |  | soluble
3 | COCCOCCOCCOC1C2COC(O2)C2OC12 [Monomer T, 1,6:2,3-dianhydro-4-O-(2-(2-(2-metoxyethoxy)ethoxy)ethyl)-β-D-mannopyranose] |  | soluble

Reference: patent US9149791B2, “Water-soluble carbohydrate polyethers” (TRGel, LLC, priority 2008, dated 2015)
